Tested on: influenza virus H3N2X31
Format: cell-based
Settings: human bronchial and parenchymal lung tissue explants, X31 virus, NP-1 antibody, flow cytometry; FIG. 8

| SMILES | efficacy as inhibitor of viral infection in the explant model (primary output: percentage of cells infected) |
| --- | --- |
| Cl.N [ammonium chloride] | demonstrated the efficacy |
| CCOC(=O)C1=C[C@@H](OC(CC)CC)[C@H](NC(C)=O)[C@@H](N)C1 [oseltamivir] | demonstrated the efficacy |

— patent publication US20120183950A1, “TISSUE ANALYSIS” (priority 2009, published 2012)
